Structures can show the parent of a compound that is named as a salt.

The first test deals with human neutrophil adhesion to TNF-α stimulated human umbilical vein endothelial cells (HUVEC). Kind of test: Inhibition of human neutrophil adhesion to TNF-stimulated human umbilical vein endothelial cells (modified method, calcein-AM fluorescence). The note with it: 4 hours, IC50 from 33.3, 10.0, 3.3 and 1.0 μM. The format is cell-based. On the procedure:
MODIFIED METHOD FOR DETERMINING THE INHIBITION OF HUMAN NEUTROPHIL ADHESION TO TNF-α, IL-1α, AND LPS STIMULATED
HI/MAN UMBILICAL VEIN ENDOTHELIAL CELLS BY
3-SUBSTITUTED-INDOLE-2-CARBOXAMIDES
Second passage HUVEC (Clonetics Corporation, San Diego, Calif., CC-2617) were seeded into Corning (Corning glass works, Corning, N.Y.) 96-well cell culture plates at approximately 5×10^3 cells/well and grown to confluency in supplemented endothelial basal medium (EBM, MCDB-131, Clonetics, 10 ng/mL EGF, 1 μg/mL hydrocortisone, 0.4% bovine brain extract, 5% Fetal Bovine Serum). One day prior to running the assay, typically 3 days postseeding, the cultures were re-fed with 0.2 mL/well supplemented EBM (S-EBM).
Preparation of Test Compounds
Test compounds were prepared as 10 mL stock solutions at a concentration of 1.0 mM. The compounds were initially solubilized in 0.1 mL DMSO followed by the addition of 9.9 mL S-EBM. The drug preparations were then diluted in one step to a concentration of 66.6 μM. Solubilizations and dilutions were performed in polystyrene containers.
Isolation of Human Neutrophils
Human neutrophils were isolated from anticoagulant-treated venous blood obtained from healthy volunteers according to the method of Ferrante and Thong, J. Immunol. Methods 1978;24:389-393. The cell preparations consisted of greater than 98% neutrophils.
Recombinant human tumor necrosis factor-α (TNF, Genzyme, Boston, Mass., code TNF-H) was prepared at 400 U/mL in S-EBM. Stock TNF was prepared to 20,000 U/mL in Delbecco's phosphate buffered saline (PBS, Gibco, Grand Island, N.Y.) plus 0.1% BSA and stored at -70° C. HUVEC were washed one time with 0.2 mL warm unsupplemented EBM and then stimulated for 4 hours at 37° C. with 200 U/mL TNF in the presence of 33.3 μM test compound. This was accomplished by adding 0.1 mL of 400 U/mL TNF and 0.1 mL 66.6 μM test compound. These additions were done slowly as to not disrupt the HUVEC monolayer. Each compound was tested in six wells. Unstimulated (vehicle control) and TNF-stimulated without test compound treatments were also run in each plate.
One hour prior to adding the neutrophils to the HUVEC, neutrophils (5×10^6 /mL) were labeled for 30 minutes at 37° C. with 5 μM calcein-AM (Molecular Probes, Eugene, Oreg.) in Hanks' balanced salt solution plus 0.45% BSA. Stock calcein was prepared to 5 mM in anhydrous DMSO and stored desiccated at -20° C. At the end of the incubation the cells were washed two times in cold HBSS and resuspended to a final concentration of 1×10^6 cells/mL in unsupplemented EBM.
Addition of Neutrophils to HUVEC
At the end of the 4-hour stimulation and immediately prior to the addition of the neutrophils to the HUVEC monolayer, the plates were washed with 0.2 mL warm unsupplemented EBM to remove TNF and drug. Neutrophils (1×10^5 cells) were slowly added to each of the treated wells and incubated for 30 minutes at 37° C. At the end of the incubation the plates were washed two times with 0.2 mL warm unsupplemented EBM followed by a final addition of 0.1 mL for plate scanning.
Determination of Relative Fluorescence
The relative fluorescence was determined using a Millipore Cytofluor 2300 system (excitation=480, emission=530, sensitivity=4). Each file was saved on disk as a comma separated value (.CSV) file for import into a spreadsheet.
Results were expressed as means of percent inhibition of TNF-stimulated adherence. A Quattro Pro (Borland, Scotts Valley, Calif.) spreadsheet has been programmed to accept the raw data and perform all necessary calculations. [formula]
Linear regression analysis of the means of the inhibition values were used to determine the IC50.
What is called IC50 is the concentration needed to halve the response being measured. `COc1ccc2c(c1)c(OC(C)C)c(C(N)=O)n2C` [Example 1, 5-Methoxy-1-methyl-3-(1-methylethoxy)-1H-indole-2-carboxamide]: the IC50 was 10 µM. The same measure, in the same setting: under `CC(C)Oc1c(C(N)=O)n(C)c2ccc(O)cc12` [Example 15, 5-Hydroxy-1-methyl-3-(1-methylethoxy)-1H-indole-2-carboxamide] stands 7 µM; under `COc1ccc2[nH]c(C(N)=O)c(OC(C)C)c2c1` [Example 18, 5-Methoxy-3-(1-methylethoxy)-1H-indole-2-carboxamide], 8 µM; under `COc1ccc2c(c1)c(SC(C)C)c(C(N)=O)n2C` [Example 26, 5-Methoxy-1-methyl-3-[(1-methylethyl)thio]-1H-indole-2-carboxamide], 29 µM. As for `CC(C)Sc1c(C(N)=O)n(C)c2ccc(O)cc12` [Example 29, 5-Hydroxy-1-methyl-3-[(1-methylethyl)thio]-1H-indole-2-carboxamide], the half-inhibitory concentration (IC50) was 43 µM. Take `COCn1c(C(N)=O)c(OC(C)C)c2cc(OC)ccc21` [Example 30, 5-Methoxy-1-methoxymethyl-3-(1-methylethoxy)-1H-indole-2-carboxamide]: the IC50 is 34 µM.

The same test, now with this note: @ 33 μM.
For orientation: inhibition means how much of the control response was suppressed. Regarding `COc1ccc2c(c1)c(SC)c(C(N)=O)n2C` [Example 6, 5-Methoxy-1-methyl-3-(methylthio)-1H-indole-2-carboxamide], the inhibition at 33 µM is 72%. As to `CCOc1c(C(N)=O)n(-c2ccccc2)c2ccc(OC)cc12` [Example 19, 3-Ethoxy-5-methoxy-1-phenyl-1H-indole-2-carboxamide], the inhibition at 33 µM is 13%. Take `CCN(CC)c1c(C(N)=O)[nH]c2ccc(OC)cc12` [Example 20, 3-(Diethylamino)-5-methoxy-1H-indole-2-carboxamide, monohydrochloride]: the inhibition at 33 µM is 27%. Regarding `CC(C)Sc1c(C(N)=O)n(C)c2ccc(OCc3ccccc3)cc12` [Example 23, 1-Methyl-3-[(1-methylethyl)thio]-5-(phenylmethoxy)-1H-indole-2-carboxamide], the inhibition at 33 µM is 15%.

For the next test, the system named is human neutrophil adhesion to TNF-α, IL-1α, and LPS-stimulated human umbilical vein endothelial cells (HUVEC). The test is described as follows: Inhibition of human neutrophil adhesion to TNF-α, IL-1α, and LPS-stimulated human umbilical vein endothelial cells (chromium assay).
Conditions: not given
The format is cell-based. The text has this: METHOD FOR DETERMINING THE INHIBITION OF HUMAN NEUTROPHIL ADHESION TO TNF-α, IL-1α, AND LPS-STIMULATED HUMAN UMBILICAL VEIN ENDOTHELIAL
CELLS BY 3-SUBSTITUTED-INDOLE-2-CARBOXAMIDES
Neutrophils were isolated from anticoagulant-treated venous blood obtained from healthy human volunteers according to the method of Ferrante and Thong (J. Immunol. Methods 1978;24:389-393). The cell preparations consisted of greater than 98% neutrophils.
Second passage human umbilical vein endothelial cells (HUVEC) (Clonetics, San Diego, Calif.) were seeded into Falcon 24-well cell culture plates (Becton Dickinson, Lincoln Park, N.J.) at approximately 2×10^4 cells per well. The cells were grown to confluent monolayers in endothelial basal medium (EBM, Clonetics) supplemented with 5% fetal calf serum (Hyclone Laboratories, Logan, Utah), 10 ng/mL EGF, 1μg/mL hydrocortisone, 0.4% bovine brain extract (Clonetics) in 5% CO2 at 37° C. […]
Stimulation of HUVEC with tumor necrosis factor-α (TNF-α) (Genzyme, Cambridge, Mass.), interleukin (IL-1α) (Genzyme) or E. coli 0111:B4 lipopolysaccharide (LPS) (Sigma) in the presence or absence of drug was initiated 4 hours prior to the addition of neutrophils. […] Lysates were collected and the radioactivity in each well was determined by gamma ray spectroscopy.
With `COc1ccc2c(c1)c(OC(C)C)c(C(N)=O)n2-c1ccccc1` [Example 16, 5-Methoxy-3-(1-methylethoxy)-1-phenyl-1H-indole-2-carboxamide], the inhibition at 100 µM stood at 35%.

Another test deals with HIV activation in OM-10.1 cells. The test is described as follows: Inhibition of activation of latent HIV in OM-10.1 cells. The format is cell-based, HIV-1. The note with it: Human immunodeficiency virus 1, chronically HIV-infected promyelocytic clone. The text has this:
The cellular pathways involved in mediating the activating signal from the plasma membrane to the integrated virus, resulting in HIV-1 expression, are much less clear. Recently, the development of a reliable and simple system for evaluating compounds that could prevent activation of latent HIV was reported at the National […] (NCDDG)/AIDS by P. Feorino, S. T. Butera, T. M. Folks, and R. F. Schinazi, Nov. 3-7, 1991. The assay system employed the OM-10.1 cell line, a unique chronically-infected promyelocytic clone which remains CD4+ until HIV-1 activation with tumor necrosis factor-α. The expression of CD4+ on the cell surface and the activity of reverse transcriptase are used as markers for quantitating viral expression. Alternatively, other HIV markers, such as protease activity, which are known to those of skill in the art can be used. OM-10.1 cells remain CD4^+ until viral activation and respond to tumor necrosis factor induction, and therefore, these cultures are used to conveniently and rapidly examine pharmacologics for an ability to prevent CD4^+ down modulation (decrease in expression of CD4^+ on the cell surface) and HIV-1 expression.
Compound `COc1ccc2c(c1)c(OC(C)C)c(C(N)=O)n2C` [Example 1, 5-Methoxy-1-methyl-3-(1-methylethoxy)-1H-indole-2-carboxamide] showed an IC50 of 0.8 µM.

The subject of the next test is activation of HIV-1 in OM-10.1 cells.
Test: not given
As to conditions: poster NCDDG/AIDS 1991; cited from earlier work.
For `Cc1cn([C@H]2C[C@H](F)[C@@H](CO)O2)c(=O)[nH]c1=O` [3'-fluoro-3'-deoxythymidine (FLT), 3'-fluoro-3'-deoxythymidine], the “inhibition of the activation of HIV-1” value is reported as “modest inhibitors”. Consider `CC(=O)N(O)CCCCCNC(=O)CCC(=O)N(O)CCCCCNC(=O)CCC(=O)N(O)CCCCCN` [desferrioxamine], for which the “inhibition of the activation of HIV-1” value is listed as “modest inhibitors”.

Consider interferon Y: interferon Y, for which the “inhibition of the activation of HIV-1” value is on record as “modest inhibitors”.

Source of the values: patent US5424329A, “Indole-2-carboxamides as inhibitors of cell adhesion” (Warner-Lambert Company, priority 1993, dated 1995).
